The text below walks through data of patent publication US10357493B2, “Metalloenzyme inhibitor compounds” (Selenity Therapeutics (Bermuda), Ltd., priority 2017, dated 2019).

Test [1] has as its target HDAC1 (Homo sapiens (Human), UniProt Q13547). Nature of the test: HDAC1 enzymatic assay. Conditions: read-out: Human HDAC1 IC50. Type of test: biochemical. The gist of the method: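 Compound inhibition of human HDAC1 (0.5 ng enzyme, 10 uM substrate) was assessed by fluorescence after developer treatment, excitation 360 nm and emission 460 nm. Percent activity was normalized to no-compound (100%) and no-enzyme (0%) controls, plotted against concentration, and fitted to a sigmoidal dose-response curve in Graphpad Prism to obtain IC50 at half-maximal activity.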

In test [2] the target is HDAC6 (Homo sapiens (Human), UniProt Q9UBN7). Nature of the test: HDAC6 enzymatic assay. The format is biochemical. Conditions: read-out: Human HDAC6 IC50. In short, it runs like this: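 Following a 17 hour room-temperature incubation of 2 ng HDAC6 with 10 uM substrate and compound, 50 μl developer was added for another 20 minutes, and fluorescence (excitation 360 nm, emission 460 nm) was recorded. Activity was normalized to no-compound (100%) and no-enzyme (0%) wells, and IC50 came from sigmoidal dose-response fitting in Graphpad Prism.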
Chain of HDAC6 (Q9UBN7 whole entry): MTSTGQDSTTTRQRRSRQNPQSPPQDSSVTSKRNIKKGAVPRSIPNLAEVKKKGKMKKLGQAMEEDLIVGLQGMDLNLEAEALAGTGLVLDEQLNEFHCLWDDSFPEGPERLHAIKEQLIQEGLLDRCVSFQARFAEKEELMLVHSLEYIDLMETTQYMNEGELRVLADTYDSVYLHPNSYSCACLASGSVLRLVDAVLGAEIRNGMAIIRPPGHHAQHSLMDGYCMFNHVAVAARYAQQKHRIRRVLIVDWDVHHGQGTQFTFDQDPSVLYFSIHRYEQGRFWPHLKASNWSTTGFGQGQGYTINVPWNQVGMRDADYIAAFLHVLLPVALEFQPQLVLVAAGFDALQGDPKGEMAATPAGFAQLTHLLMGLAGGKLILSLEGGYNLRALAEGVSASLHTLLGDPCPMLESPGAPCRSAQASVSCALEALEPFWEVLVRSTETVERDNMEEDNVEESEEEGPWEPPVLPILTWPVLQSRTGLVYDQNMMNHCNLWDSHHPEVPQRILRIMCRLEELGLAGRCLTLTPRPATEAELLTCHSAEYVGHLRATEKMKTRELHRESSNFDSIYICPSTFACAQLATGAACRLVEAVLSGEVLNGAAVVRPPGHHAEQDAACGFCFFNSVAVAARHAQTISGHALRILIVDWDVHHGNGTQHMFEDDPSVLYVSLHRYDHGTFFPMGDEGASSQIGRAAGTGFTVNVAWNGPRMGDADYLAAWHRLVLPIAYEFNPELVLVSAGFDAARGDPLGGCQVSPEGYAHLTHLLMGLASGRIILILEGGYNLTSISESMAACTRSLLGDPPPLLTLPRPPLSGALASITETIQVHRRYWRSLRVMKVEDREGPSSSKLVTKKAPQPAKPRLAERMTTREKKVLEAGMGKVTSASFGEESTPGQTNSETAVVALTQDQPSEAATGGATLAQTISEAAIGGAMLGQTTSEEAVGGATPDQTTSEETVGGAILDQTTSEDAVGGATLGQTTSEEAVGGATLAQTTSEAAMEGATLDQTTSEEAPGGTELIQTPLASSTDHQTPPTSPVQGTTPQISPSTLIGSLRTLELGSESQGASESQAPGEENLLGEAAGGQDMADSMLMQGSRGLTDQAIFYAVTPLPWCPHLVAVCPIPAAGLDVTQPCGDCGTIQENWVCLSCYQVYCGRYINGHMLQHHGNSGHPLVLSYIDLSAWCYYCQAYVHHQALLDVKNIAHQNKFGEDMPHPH

Chain of HDAC1 (Q13547 whole entry): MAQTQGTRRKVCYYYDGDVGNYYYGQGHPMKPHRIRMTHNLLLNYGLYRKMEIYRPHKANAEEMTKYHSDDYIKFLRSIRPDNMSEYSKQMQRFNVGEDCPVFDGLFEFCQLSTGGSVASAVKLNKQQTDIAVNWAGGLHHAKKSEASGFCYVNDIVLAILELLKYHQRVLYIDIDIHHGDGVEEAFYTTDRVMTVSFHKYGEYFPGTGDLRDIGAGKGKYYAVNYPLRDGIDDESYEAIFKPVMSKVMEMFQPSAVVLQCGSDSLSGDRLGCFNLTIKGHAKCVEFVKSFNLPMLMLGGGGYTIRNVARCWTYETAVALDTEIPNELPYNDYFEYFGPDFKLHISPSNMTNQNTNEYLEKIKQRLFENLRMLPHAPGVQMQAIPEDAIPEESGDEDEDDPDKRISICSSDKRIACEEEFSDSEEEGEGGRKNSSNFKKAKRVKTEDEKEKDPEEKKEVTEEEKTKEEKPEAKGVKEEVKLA

For `Fc1ccc(C(Nc2ncc(-c3nnc(C(F)F)o3)cn2)C(F)(F)F)cc1` (stereo not shown) [Example 15, 5-(5-(difluoromethyl)-1,3,4-oxadiazol-2-yl)-N-(2,2,2-trifluoro-1-(4-fluorophenyl)ethyl)pyrimidin-2-amine], the IC50 in test [1] was more than 30 µM; in test [2], 74 nM.
`Fc1ccc(-c2ccc(C3(Nc4ncc(-c5nnc(C(F)F)o5)cn4)CC3)cc2)cc1` [Example 16, 5-(5-(difluoromethyl)-1,3,4-oxadiazol-2-yl)-N-(1-(4′-fluoro-[1,1′-biphenyl]-4-yl)cyclopropyl) pyrimidin-2-amine]: the IC50 is more than 30 µM in test [1] and 95 nM in test [2].
The matching figures for `Fc1ccc(C2(Nc3ncc(-c4nnc(C(F)F)o4)cn3)CCN(c3ccccc3)CC2)cc1` [Example 17, 5-(5-(difluoromethyl)-1,3,4-oxadiazol-2-yl)-N-(4-(4-fluorophenyl)-1-phenylpiperidin-4-yl)pyrimidin-2-amine]: more than 30 µM and 160 nM.
Take `Fc1ccc(-c2cccc(C3(Nc4ncc(-c5nnc(C(F)F)o5)cn4)CC3)c2)cc1` [Example 18, 5-(5-(difluoromethyl)-1,3,4-oxadiazol-2-yl)-N-(1-(4′-fluoro-[1,1′-biphenyl]-3-yl)cyclopropyl)pyrimidin-2-amine]: the IC50 was more than 30 µM in test [1] and 58 nM in test [2].
Take `Fc1ccc(C(COc2ccccc2)Nc2ncc(-c3nnc(C(F)F)o3)cn2)cc1` (stereo not shown) [Example 19, 5-(5-(difluoromethyl)-1,3,4-oxadiazol-2-yl)-N-(1-(4-fluorophenyl)-2-phenoxyethyl)pyrimidin-2-amine]: the IC50 in test [1] was more than 30 µM; in test [2], 47 nM.
`CC(Nc1ncc(-c2nnc(C(F)F)o2)cn1)c1ccc(F)cc1` (stereo not shown) [Example 20, 5-(5-(difluoromethyl)-1,3,4-oxadiazol-2-yl)-N-(1-(4-fluorophenyl)ethyl)pyrimidin-2-amine]: the values for the half-inhibitory concentration (IC50) in test [1] and in test [2] were more than 30 µM and 33 nM, respectively.
On to `COCC(Nc1ncc(-c2nnc(C(F)F)o2)cn1)c1ccc(F)cc1` (stereo not shown) [Example 21, 5-(5-(difluoromethyl)-1,3,4-oxadiazol-2-yl)-N-(1-(4-fluorophenyl)-2-methoxyethyl)pyrimidin-2-amine], for which the results for the IC50 in test [1] and in test [2] were more than 30 µM and 77 nM, respectively.
For `CCC(Nc1ncc(-c2nnc(C(F)F)o2)cn1)c1ccc(F)cc1` (stereo not shown) [Example 22, 5-(5-(difluoromethyl)-1,3,4-oxadiazol-2-yl)-N-(1-(4-fluorophenyl)propyl)pyrimidin-2-amine] the same measures were more than 30 µM and 71 nM.
For `CCCC(Nc1ncc(-c2nnc(C(F)F)o2)cn1)c1ccc(F)cc1` (stereo not shown) [Example 23, 5-(5-(difluoromethyl)-1,3,4-oxadiazol-2-yl)-N-(1-(4-fluorophenyl)butyl)pyrimidin-2-amine] the same measures were more than 30 µM and 100 nM.
For the compound `CC(C)C(Nc1ncc(-c2nnc(C(F)F)o2)cn1)c1ccc(F)cc1` (stereo not shown) [Example 24, 5-(5-(difluoromethyl)-1,3,4-oxadiazol-2-yl)-N-(1-(4-fluorophenyl)-2-methylpropyl)pyrimidin-2-amine], the IC50 is more than 30 µM in test [1] and 95 nM in test [2].
`N#Cc1ccc(C2(Nc3ncc(-c4nnc(C(F)F)o4)cn3)CC2)cn1` [Example 25, 5-(1-((5-(5-(difluoromethyl)-1,3,4-oxadiazol-2-yl)pyrimidin-2-yl)amino)cyclopropyl)picolinonitrile]: the IC50 in test [1] is more than 30 µM; in test [2], more than 1000 nM.
With `CC(=O)N1CCC(Nc2ncc(-c3nnc(C(F)F)o3)cn2)(c2ccc(F)cc2)CC1` [Example 26, 1-(4-((5-(5-(difluoromethyl)-1,3,4-oxadiazol-2-yl)pyrimidin-2-yl)amino)-4-(4-fluorophenyl)piperidin-1-yl)ethan-1-one], the IC50 in test [1] is more than 30 µM; in test [2], 140 nM.
In the case of `FC(F)c1nnc(-c2cnc(NC3(C4CCCCC4)CC3)nc2)o1` [Example 27, N-(1-cyclohexylcyclopropyl)-5-(5-(difluoromethyl)-1,3,4-oxadiazol-2-yl)pyrimidin-2-amine], the IC50 in test [1] is more than 30 µM; in test [2], 74 nM.
In the case of `CC(C)C1(Nc2ncc(-c3nnc(C(F)F)o3)cn2)CC1` [Example 28, 5-(5-(difluoromethyl)-1,3,4-oxadiazol-2-yl)-N-(1-isopropylcyclopropyl)pyrimidin-2-amine], the half-inhibitory concentration (IC50) is more than 30 µM in test [1] and 610 nM in test [2].
On to `Fc1ccc2c(c1)CCC2Nc1ncc(-c2nnc(C(F)F)o2)cn1` (stereo not shown) [Example 29, 5-(5-(difluoromethyl)-1,3,4-oxadiazol-2-yl)-N-(5-fluoro-2,3-dihydro-1H-inden-1-yl)pyrimidin-2-amine], for which the IC50 in test [1] is more than 30 µM; in test [2] it was 450 nM.
With `O=C(C(Nc1ncc(-c2nnc(C(F)F)o2)cn1)c1ccc(F)cc1)N1CCOCC1` (stereo not shown) [Example 30, 2-((5-(5-(difluoromethyl)-1,3,4-oxadiazol-2-yl)pyrimidin-2-yl)amino)-2-(4-fluorophenyl)-1-morpholinoethan-1-one], the figures for the half-inhibitory concentration (IC50) in test [1] and in test [2] were more than 30 µM and 770 nM, respectively.
Regarding `CC(Nc1ncc(-c2nnc(C(F)F)o2)cn1)c1ccc(F)cn1` (stereo not shown) [Example 31, 5-(5-(difluoromethyl)-1,3,4-oxadiazol-2-yl)-N-(1-(5-fluoropyridin-2-yl)ethyl)pyrimidin-2-amine], the half-inhibitory concentration (IC50) in test [1] was more than 30 µM; in test [2], 120 nM.
Turning to `FC(F)Oc1ccc(C2(Nc3ncc(-c4nnc(C(F)F)o4)cn3)CC2)cc1` [Example 32, N-(1-(4-(difluoromethoxy)phenyl)cyclopropyl)-5-(5-(difluoromethyl)-1,3,4-oxadiazol-2-yl)pyrimidin-2-amine], the half-maximal inhibitory concentration (IC50) in test [1] is more than 30 µM; in test [2], 59 nM.
As to `Fc1cc(OC(F)F)ccc1C1(Nc2ncc(-c3nnc(C(F)F)o3)cn2)CC1` [Example 33, N-(1-(4-(difluoromethoxy)-2-fluorophenyl)cyclopropyl)-5-(5-(difluoromethyl)-1,3,4-oxadiazol-2-yl)pyrimidin-2-amine], the half-maximal inhibitory concentration (IC50) was more than 30 µM in test [1] and 29 nM in test [2].
Consider `Fc1ccc2c(c1)CCCC2Nc1ncc(-c2nnc(C(F)F)o2)cn1` (stereo not shown) [Example 34, 5-(5-(difluoromethyl)-1,3,4-oxadiazol-2-yl)-N-(6-fluoro-1,2,3,4-tetrahydronaphthalen-1-yl)pyrimidin-2-amine], for which the IC50 in test [1] is more than 30 µM; in test [2], 790 nM.
Regarding `O=C(Nc1ccccc1)C(Nc1ncc(-c2nnc(C(F)F)o2)cn1)c1ccc(F)cc1` (stereo not shown) [Example 35, 2-((5-(5-(difluoromethyl)-1,3,4-oxadiazol-2-yl)pyrimidin-2-yl)amino)-2-(4-fluorophenyl)-N-phenylacetamide], the half-maximal inhibitory concentration (IC50) in test [1] was more than 30 µM; in test [2], 170 nM.
Take `Fc1ccc(C(Nc2ncc(-c3nnc(C(F)F)o3)cn2)C2CC2)cc1` (stereo not shown) [Example 36, N-(cyclopropyl(4-fluorophenyl)methyl)-5-(5-(difluoromethyl)-1,3,4-oxadiazol-2-yl)pyrimidin-2-amine]: the results for the half-inhibitory concentration (IC50) in test [1] and in test [2] were more than 30 µM and 64 nM, respectively.
Regarding `Fc1ccc(C2(Nc3ncc(-c4nnc(C(F)F)o4)cn3)CCC(F)(F)CC2)cc1` [Example 37, N-(4,4-difluoro-1-(4-fluorophenyl)cyclohexyl)-5-(5-(difluoromethyl)-1,3,4-oxadiazol-2-yl)pyrimidin-2-amine], the 50% inhibitory concentration (IC50) in test [1] is more than 30 µM; in test [2] it was 180 nM.
On to `CS(=O)(=O)NCC(Nc1ncc(-c2nnc(C(F)F)o2)cn1)c1ccc(F)cc1` (stereo not shown) [Example 38, N-(2-((5-(5-(difluoromethyl)-1,3,4-oxadiazol-2-yl)pyrimidin-2-yl)amino)-2-(4-fluorophenyl)ethyl)methanesulfonamide], for which the half-inhibitory concentration (IC50) in test [1] is more than 30 µM; in test [2], 29 nM.
With `O=S(=O)(NCC(Nc1ncc(-c2nnc(C(F)F)o2)cn1)c1ccc(F)cc1)c1ccccc1` (stereo not shown) [Example 39, N-(2-((5-(5-(difluoromethyl)-1,3,4-oxadiazol-2-yl)pyrimidin-2-yl)amino)-2-(4-fluorophenyl)ethyl)benzenesulfonamide], the half-inhibitory concentration (IC50) in test [1] was more than 30 µM; in test [2] it was 50 nM.
For the compound `COc1ccccc1C1(Nc2ncc(-c3nnc(C(F)(F)F)o3)cn2)CC1` [Example 40, N-(1-(2-methoxyphenyl)cyclopropyl)-5-(5-(trifluoromethyl)-1,3,4-oxadiazol-2-yl)pyrimidin-2-amine], the half-inhibitory concentration (IC50) in test [1] was more than 30 µM; in test [2] it was 220 nM.
For the compound `COc1cccc(C2(Nc3ncc(-c4nnc(C(F)(F)F)o4)cn3)CC2)c1` [Example 41, N-(1-(3-methoxyphenyl)cyclopropyl)-5-(5-(trifluoromethyl)-1,3,4-oxadiazol-2-yl)pyrimidin-2-amine], the half-maximal inhibitory concentration (IC50) was more than 30 µM in test [1] and 250 nM in test [2].
The matching figures for `COc1ccc(C2(Nc3ncc(-c4nnc(C(F)(F)F)o4)cn3)CC2)cc1` [Example 42, N-(1-(4-methoxyphenyl)cyclopropyl)-5-(5-(trifluoromethyl)-1,3,4-oxadiazol-2-yl)pyrimidin-2-amine]: more than 30 µM and 250 nM.
Turning to `COc1cccc(C2(Nc3ncc(-c4nnc(C(F)F)o4)cn3)CC2)c1` [Example 43, 5-(5-(difluoromethyl)-1,3,4-oxadiazol-2-yl)-N-(1-(3-methoxyphenyl)cyclopropyl)pyrimidin-2-amine], the IC50 was more than 30 µM in test [1] and 39 nM in test [2].

As a reminder, the IC50 is the concentration at which inhibition is half-maximal.
